SMILES strings stand for the structures.

In turn, `*/C(Cl)=C(/*)c1ccccc1` (repeat unit) came in with a glass transition temperature of 215.00 °C. The value for `*C(=O)OCC(C)(C)COC(=O)N1CCN(*)CC1` (repeat unit) was 70.00 °C; that for `*C(CC)COC(=O)NCCCCCCNC(=O)OCC(CC)n1c(=O)c2cc3c(=O)n(*)c(=O)c3cc2c1=O` (repeat unit) was 61.00 °C; that for `*CC(=O)NCCCCCCNC(=O)COC(=O)CCC(=O)O*` (repeat unit) was 30.00 °C. Turning to `*CC(=O)NCCCCCCNC(=O)COC(=O)CCCCC(=O)O*` (repeat unit), the glass transition temperature came out at 19.00 °C. The value for `*CC(=O)NCCCCCCNC(=O)COC(=O)CCCCCCC(=O)O*` (repeat unit) was 8.00 °C; that for `*CC(=O)NCCCCCCNC(=O)COC(=O)CCCCCCCCCCC(=O)O*` (repeat unit) was 0.90 °C. For `*CC(=O)Nc1ccc(Oc2ccc(Oc3ccc(NC(=O)CN4C(=O)c5ccc(C(c6ccc7c(c6)C(=O)N(*)C7=O)(C(F)(F)F)C(F)(F)F)cc5C4=O)cc3)cc2)cc1` (repeat unit) the value was 242.00 °C.

`*CC(=O)Nc1ccc(Oc2ccc(S(=O)(=O)c3ccc(Oc4ccc(NC(=O)CN5C(=O)c6ccc(C(c7ccc8c(c7)C(=O)N(*)C8=O)(C(F)(F)F)C(F)(F)F)cc6C5=O)cc4)cc3)cc2)cc1` (repeat unit): the glass transition temperature was found to be 241.00 °C. The value for `*CC(C)(C)COC(=O)NC(=O)c1cc(C(=O)NC(=O)O*)cc(C(C)(C)C)c1` (repeat unit) was 144.00 °C. For `*CC(C)(C)COC(=O)NC(=O)c1ccc(C(=O)NC(=O)O*)cc1` (repeat unit) the value was 102.00 °C. On to `*CC(C)(C)COC(=O)NC(=O)c1cccc(C(=O)NC(=O)O*)c1` (repeat unit), for which the glass transition temperature came to 66.00 °C. The value for `*CC(C)(C)COC(=O)Nc1ccc(Cc2ccc(NC(=O)O*)cc2)cc1` (repeat unit) was 94.00 °C; that for `*CC(C)(C)COC(=O)c1ccc(-c2ccc(-c3ccc(C(=O)O*)cc3)cc2)cc1` (repeat unit) was 100.00 °C. `*CC(C)(C)CS(=O)(=O)CC(C)(C)COC(=O)Nc1ccc(Cc2ccc(NC(=O)O*)cc2)cc1` (repeat unit) had a glass transition temperature of 90.00 °C. Molecule `*CC(C)(C)CS(=O)(=O)CC(C)(C)COC(=O)O*` (repeat unit) showed a glass transition temperature of 50.00 °C. `*CC(C)(CC)C(=O)O*` (repeat unit) returned a glass transition temperature of -9.00 °C. Regarding `*CC(C)(CCC)COC(=O)c1ccc(-c2ccc(C(=O)O*)cc2)cc1` (repeat unit), the glass transition temperature stood at 95.00 °C.

As for `*CC(C)(CO)CO*` (repeat unit), the glass transition temperature came out at 62.00 °C. The value for `*CC(C)(CO*)COCC(F)(F)C(F)(F)C(F)(F)C(F)(F)C(F)(F)C(F)(F)C(F)(F)F` (repeat unit) was -49.00 °C; that for `*CC(C)(CO*)COCC(F)(F)C(F)(F)C(F)(F)F` (repeat unit) was -45.00 °C. In the case of `*CC(C)(CO*)COCCOCCOCCOC` (repeat unit), the glass transition temperature was -18.00 °C. For `*CC(C)(COC(=O)O*)C(=O)OCc1ccccc1` (repeat unit) the value was -2.00 °C; for `*CC(C)CNC(=O)O*` (repeat unit), 40.00 °C; for `*CC(C)COC(=O)c1ccc(C(=O)O*)cc1` (repeat unit), 55.00 °C. The molecule `*CC(CC)(CC)COC(=O)Nc1ccc(C)c(NC(=O)O*)c1` (repeat unit) yielded a glass transition temperature of -60.00 °C.

For the molecule `*CC(CC)(CCl)CO*` (repeat unit), the glass transition temperature turned out to be 20.00 °C. For `*CC(CCCC)COC(=O)NC(=O)c1cccc(C(=O)NC(=O)O*)c1` (repeat unit) the value was 64.00 °C. The value for `*CC(CCCCCCCCCC)C(CCCCCCCCCC)COC(=O)c1ccc(C(=O)O*)cc1` (repeat unit) was -38.00 °C.

`*CC(CCCCCCCCCCCCCCCC)C(CCCCCCCCCCCCCCCC)COC(=O)c1ccc(C(=O)O*)cc1` (repeat unit) gave a glass transition temperature of -26.00 °C. `*CC(CO)(CCl)COc1ccc(C(c2ccc(O*)cc2)(C(F)(F)F)C(F)(F)F)cc1` (repeat unit) had a glass transition temperature of 107.00 °C. For `*CC(CO*)(CS(=O)(=O)CCCCC)CS(=O)(=O)CCCCC` (repeat unit) the value was 56.00 °C; for `*CC(CO*)(CSC(C)C)CSC(C)C` (repeat unit), -9.00 °C; for `*CC(COc1ccc(C(C)(C)c2ccc(O*)cc2)cc1)OC(=O)CC` (repeat unit), 60.00 °C.

Consider `*CC(C[N-][N+]#N)(C[N-][N+]#N)CO*` (repeat unit), for which the glass transition temperature is -30.00 °C. Consider `*CC(OC(=O)C(Cc1ccccc1)NC(=O)OC(C)(C)C)C(COC(=O)O*)OC(=O)C(Cc1ccccc1)NC(=O)OC(C)(C)C` (repeat unit), for which the glass transition temperature was 82.40 °C. Take `*CC(OC(=O)OCC)C(COC(=O)O*)OC(=O)OCC` (repeat unit): the glass transition temperature is 49.80 °C. `*CC(OC(C)=O)C(COC(=O)O*)OC(C)=O` (repeat unit) returned a glass transition temperature of 58.60 °C.

As to `*CC1CC(CNC(=O)c2cccc(C(=O)N*)c2)CC(C(C)(C)C)C1` (repeat unit), the glass transition temperature is 209.00 °C. The value for `*CCCNC(=O)CNC(=O)C(Cc1ccccc1)NC(=O)CCCCCCCCC(=O)NC(Cc1ccccc1)C(=O)NCC(=O)NCCCOCCOCCO*` (repeat unit) was 36.00 °C. The molecule `*CCOCC(CCl)O*` (repeat unit) registered a glass transition temperature of -40.00 °C. In the case of `*CCOCO*` (repeat unit), the glass transition temperature is -64.00 °C. For `*CCSSCCO*` (repeat unit) the value was -53.00 °C; for `*CCSSSSCCO*` (repeat unit), -40.00 °C. `*CN1C(=O)c2ccc(C(c3ccc4c(c3)C(=O)N(Cc3nc5ccc(Cc6ccc7nc(*)oc(=O)c7c6)cc5c(=O)o3)C4=O)(C(F)(F)F)C(F)(F)F)cc2C1=O` (repeat unit) yielded a glass transition temperature of 218.00 °C. Turning to `*COC(=O)OC1C(*)OC2OC(C)(C)OC21` (repeat unit), the glass transition temperature amounted to 128.00 °C. The value for `*COC(=O)OCC1OC(OCC)(OCC)OC1*` (repeat unit) was 10.80 °C; that for `*Cc1cc(C)c(CNC(=O)c2ccc(C(=O)N*)cc2)cc1C` (repeat unit) was 225.00 °C; that for `*Cc1cc(CNC(=O)c2cccc(C(=O)N*)c2)cc(C(C)(C)C)c1` (repeat unit) was 188.00 °C. For `*Cc1ccc(CO*)cc1` (repeat unit) the value was 217.00 °C; for `*Nc1cccc(NC(=O)c2cc(NC(=O)c3ccncc3)cc(C(*)=O)c2)c1` (repeat unit), 321.00 °C. For `*Nc1cccc2c(NC(=O)c3cc(NC(=O)C(CCSC)N4C(=O)c5ccccc5C4=O)cc(C(*)=O)c3)cccc12` (repeat unit) the value was 198.00 °C. In the case of `*OC(=O)OCC(OC)C(COC(=O)OC1COC2C(*)COC12)OC` (repeat unit), the glass transition temperature stood at 61.00 °C. The value for `*OC(C)COC(=O)/C=C/C(*)=O` (repeat unit) was -14.00 °C; that for `*OC(C)COC(=O)c1ccc(C(*)=O)cc1` (repeat unit) was 98.00 °C; that for `*OC(C)COC(=O)c1cccc(C(*)=O)c1` (repeat unit) was 77.00 °C. The value for `*OC(COC(=O)c1ccc(-c2ccc(C(*)=O)cc2)cc1)COc1ccc(/N=N/c2ccc(C#N)cc2)cc1` (repeat unit) was 141.00 °C; that for `*OC(COC(=O)c1ccc(C(*)=O)cc1)COc1ccc(/N=N/c2ccc(C#N)cc2)cc1` (repeat unit) was 122.00 °C. The value for `*OC(COCCCC)COC(*)=O` (repeat unit) was -22.00 °C; that for `*O[Si](C)(C)COC(=O)CCCCCCCCC(=O)Oc1ccc(S(=O)(=O)c2ccc(Oc3ccc(/C=C4\CC/C(=C\c5ccc(Oc6ccc(S(=O)(=O)c7ccc(OC(=O)CCCCCCCCC(=O)OC[Si](*)(C)C)cc7)cc6)cc5)C4=O)cc3)cc2)cc1` (repeat unit) was 73.00 °C; that for `*O[Si](C)(C)COC(=O)CCCCCCCCC(=O)Oc1ccc(S(=O)(=O)c2ccc(Oc3ccc(/C=C4\CCCC/C(=C\c5ccc(Oc6ccc(S(=O)(=O)c7ccc(OC(=O)CCCCCCCCC(=O)OC[Si](*)(C)C)cc7)cc6)cc5)C4=O)cc3)cc2)cc1` (repeat unit) was 81.00 °C. On to `*Oc1ccc(C(=O)OC(C)COC(C)COC(C)COC(=O)c2ccc(OC(=O)c3ccc(C(*)=O)cc3)cc2)cc1` (repeat unit), for which the glass transition temperature was 36.00 °C. `*Oc1ccc(Oc2ccc(Oc3ccc(NC(=O)c4cc(C(=O)Nc5ccc(*)cc5)cc(C(C)(C)C)c4)cc3)cc2)cc1` (repeat unit) had a glass transition temperature of 230.00 °C.

Molecule `*Oc1cccc(Oc2cccc(NC(=O)c3cc(Oc4ccc(C(=O)O)c(C(=O)Nc5cccc(*)c5)c4)ccc3C(=O)O)c2)c1` (repeat unit) yielded a glass transition temperature of 176.40 °C.

For the molecule `*Sc1ccc(C(=O)CNCCCCCCCCNCC(=O)c2ccc(*)cc2)cc1` (repeat unit), the glass transition temperature was determined as 231.00 °C. The value for `*c1ccc(Oc2ccc(-c3nc4cc(Oc5ccc(NC(=O)CN6C(=O)c7ccc(C(c8ccc9c(c8)C(=O)N(CC(=O)Nc8ccc(Oc%10ccc%11nc(-c%12ccccc%12)c(*)nc%11c%10)cc8)C9=O)(C(F)(F)F)C(F)(F)F)cc7C6=O)cc5)ccc4nc3-c3ccccc3)cc2)cc1` (repeat unit) was 260.00 °C; that for `*c1ccc(Oc2cccc(NC(=O)c3cc(NC(=O)c4ccc(OC(C)=O)cc4)cc(C(=O)Nc4cccc(Oc5ccc(-c6nnc(*)o6)cc5)c4)c3)c2)cc1` (repeat unit) was 270.00 °C.
